Measurements taken from patent US20120029187A1, “HALOALKYLSULFONANILIDE DERIVATIVE” (Nissan Chemical Industries, Ltd., priority 2009, published 2012).

Legend:
Type in all cases: in vivo
common lambsquater [1] = assay: Test Example 4: herbicidal effect in foliage treatment; settings: dose 3.2 g/a, three weeks after application
In short: (§1)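 14-day greenhouse-grown plants (25–30° C) sprayed on foliage with diluted EC; dose as g/a; effect graded after 3 weeks.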

Italian ryegrass [2] = assay: as above; settings: dose 3.2 g/a, three weeks after application
In short: as §1

large crabgrass [3] = assay: as above; settings: dose 3.2 g/a, three weeks after application
In short: as §1

barnyardgrass [4] = assay: as above; settings: dose 3.2 g/a, three weeks after application
In short: as §1

posumbu knotweed [5] = assay: as above; settings: dose 3.2 g/a, three weeks after application
In short: as §1

velvetleaf [6] = assay: as above; settings: dose 3.2 g/a, three weeks after application
In short: as §1

redroot pigweed [7] = assay: as above; settings: dose 3.2 g/a, three weeks after application
In short: as §1

water foxtail [8] = assay: as above; settings: dose 3.2 g/a, three weeks after application
In short: as §1

common chickweed [9] = assay: as above; settings: dose 3.2 g/a, three weeks after application
In short: as §1

common ragweed [10] = assay: as above; settings: dose 3.2 g/a, three weeks after application
In short: as §1

beadstraw = assay: as above; settings: dose 3.2 g/a, three weeks after application
In short: as §1

giant foxtail [11] = assay: as above; settings: dose 3.2 g/a, three weeks after application
In short: as §1

transplanted rice = assay: Test Example 1: preemergence treatment under submerged conditions, effect on crop; settings: dose 2.52 g/a
In short: (§2)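 Score 0–5 by mortality (5: ≥90%; 0: <5%), read 3 weeks post-application. Paddy-type cups: alluvial soil under 4 cm water, weeds seeded plus transplanted 2.5-leaf rice; diluted EC dosed onto water surface same day as sowing, g/a basis; greenhouse 25 to 30° C.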

bulrush [12] = assay: Test Example 1: herbicidal effects in preemergence treatment under submerged conditions; settings: dose 2.52 g/a
In short: as §2

barnyardgrass [13] = assay: as above; settings: dose 2.52 g/a
In short: as §2

ducksalad [14] = assay: as above; settings: dose 2.52 g/a
In short: as §2

common lambsquater [15] = assay: Test Example 3: herbicidal effects in soil treatment; settings: dose 3.2 g/a
In short: (§3)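 Seeds were sown in sterilized diluvial soil and covered with about 1.5 cm of soil. Compounds, formulated as emulsifiable concentrates and diluted with water, were sprayed evenly over the soil surface at set doses in g/a. Herbicidal effect was scored on a rating scale three weeks later.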

Italian ryegrass [16] = assay: as above; settings: dose 3.2 g/a
In short: as §3

large crabgrass [17] = assay: as above; settings: dose 3.2 g/a
In short: as §3

barnyardgrass [18] = assay: as above; settings: dose 3.2 g/a
In short: as §3

posumbu knotweed [19] = assay: as above; settings: dose 3.2 g/a
In short: as §3

velvetleaf [20] = assay: as above; settings: dose 3.2 g/a
In short: as §3

redroot pigweed [21] = assay: as above; settings: dose 3.2 g/a
In short: as §3

water foxtail [22] = assay: as above; settings: dose 3.2 g/a
In short: as §3

common chickweed [23] = assay: as above; settings: dose 3.2 g/a
In short: as §3

common ragweed [24] = assay: as above; settings: dose 3.2 g/a
In short: as §3

giant foxtail [25] = assay: as above; settings: dose 3.2 g/a
In short: as §3

bulrush [26] = assay: Test Example 2: herbicidal effects during the vegetation period under submerged conditions; settings: treatment during the vegetation period under submerged conditions; dose 2.52 g/a
In short: (§4)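 Barnyardgrass, bulrush and ducksalad were co-sown in alluvial soil flooded to 4 cm and grown in a greenhouse at 25 to 30° C. At the 1- or 2-leaf stage, water-diluted emulsifiable concentrates went onto the water surface at set doses (g/a). Herbicidal effect was scored three weeks later on a graded scale.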

barnyardgrass [27] = assay: as above; settings: treatment during the vegetation period under submerged conditions; dose 2.52 g/a
In short: as §4

ducksalad [28] = assay: as above; settings: treatment during the vegetation period under submerged conditions; dose 2.52 g/a
In short: as §4

CCOC(=O)N(c1ccccc1CN1COC(C)(CC)CC1=O)S(=O)(=O)C(F)(F)F (stereo not drawn) [II-42]
L: common lambsquater, herbicidal effect (common lambsquater [1]): 3 (mortality of at least 40% and less than 70%)
H: Italian ryegrass, herbicidal effect (Italian ryegrass [2]): 3 (mortality of at least 40% and less than 70%)
D: large crabgrass, herbicidal effect (large crabgrass [3]): 3 (mortality of at least 40% and less than 70%)
A: barnyardgrass, herbicidal effect (barnyardgrass [4]): 5 (mortality of 90% or above (nearly complete death))
M: posumbu knotweed, herbicidal effect (posumbu knotweed [5]): 0 (mortality of less than 5% (almost ineffective))
I: velvetleaf, herbicidal effect (velvetleaf [6]): 5 (mortality of 90% or above (nearly complete death))
K: redroot pigweed, herbicidal effect (redroot pigweed [7]): 0 (mortality of less than 5% (almost ineffective))
G: water foxtail, herbicidal effect (water foxtail [8]): 5 (mortality of 90% or above (nearly complete death))
N: common chickweed, herbicidal effect (common chickweed [9]): 4 (mortality of at least 70% and less than 90%)
J: common ragweed, herbicidal effect (common ragweed [10]): 3 (mortality of at least 40% and less than 70%)
O: beadstraw, herbicidal effect (beadstraw): 3 (mortality of at least 40% and less than 70%)
E: giant foxtail, herbicidal effect (giant foxtail [11]): 5 (mortality of 90% or above (nearly complete death))
a: transplanted rice, effect on crop (evaluation scale 0-5) (transplanted rice): 0 (mortality of less than 5% (almost ineffective))
B: bulrush, herbicidal effect (evaluation scale 0-5) (bulrush [12]): 5 (mortality of 90% or above (nearly complete death))
A: barnyardgrass, herbicidal effect (evaluation scale 0-5) (barnyardgrass [13]): 5 (mortality of 90% or above (nearly complete death))
C: ducksalad, herbicidal effect (evaluation scale 0-5) (ducksalad [14]): 5 (mortality of 90% or above (nearly complete death))
L: common lambsquater, herbicidal effect (evaluation scale 0-5) (common lambsquater [15]): 0 (mortality of less than 5% (almost ineffective))
H: Italian ryegrass, herbicidal effect (evaluation scale 0-5) (Italian ryegrass [16]): 5 (mortality of 90% or above (nearly complete death))
D: large crabgrass, herbicidal effect (evaluation scale 0-5) (large crabgrass [17]): 5 (mortality of 90% or above (nearly complete death))
A: barnyardgrass, herbicidal effect (evaluation scale 0-5) (barnyardgrass [18]): 5 (mortality of 90% or above (nearly complete death))
M: posumbu knotweed, herbicidal effect (evaluation scale 0-5) (posumbu knotweed [19]): 4 (mortality of at least 70% and less than 90%)
I: velvetleaf, herbicidal effect (evaluation scale 0-5) (velvetleaf [20]): 5 (mortality of 90% or above (nearly complete death))
K: redroot pigweed, herbicidal effect (evaluation scale 0-5) (redroot pigweed [21]): 3 (mortality of at least 40% and less than 70%)
G: water foxtail, herbicidal effect (evaluation scale 0-5) (water foxtail [22]): 5 (mortality of 90% or above (nearly complete death))
N: common chickweed, herbicidal effect (evaluation scale 0-5) (common chickweed [23]): 5 (mortality of 90% or above (nearly complete death))
J: common ragweed, herbicidal effect (evaluation scale 0-5) (common ragweed [24]): 4 (mortality of at least 70% and less than 90%)
E: giant foxtail, herbicidal effect (evaluation scale 0-5) (giant foxtail [25]): 1 (mortality of at least 5% and less than 20%)
B: bulrush, herbicidal effect (evaluation scale 0-5) (bulrush [26]): 5 (mortality of 90% or above (nearly complete death))
A: barnyardgrass, herbicidal effect (evaluation scale 0-5) (barnyardgrass [27]): 5 (mortality of 90% or above (nearly complete death))
C: ducksalad, herbicidal effect (evaluation scale 0-5) (ducksalad [28]): 5 (mortality of 90% or above (nearly complete death))
